The subject of one experiment is NMRI mice. The experiment can be described thus: Acute self-administration: cocaine reinforcement. The experiment is classed as in vivo. The following applies: vehicle p.o. pre-treated NMRI mice; inverted U-shaped curve.
The next experiment concerns Y5-KO and WT mice. The experiment can be described thus: Acute self-administration of cocaine in Y5-KO and WT mice. Type of experiment: in vivo. The following applies: inverted U-shaped curve, FIG. 4.

Take `COC(=O)[C@H]1[C@@H](OC(=O)c2ccccc2)C[C@@H]2CC[C@H]1N2C` [cocaine]: the “cocaine dose at which self-administration reaches maximum” value in the experiment with NMRI mice was 0.03 mg/kg/infusion; in the experiment on Y5-KO and WT mice, 0.03 mg/kg/infusion.

(Values after US20110060037A1, “USE OF NPY Y5 RECEPTOR ANTAGONISTS FOR THE PREVENTION OF PSYCHO-STIMULANT AND OPIOID ABUSE” (priority 2008, published 2011).)
